Two compounds from PMC3568510 (Biochemistry, 2013) can be followed below.

This test addresses CC3396. The format is biochemical, Caulobacter vibrioides (Caulobacter crescentus).

Usually Ki stands for the dissociation constant of the complex between target and ligand, obtained from inhibition or displacement. `Nc1nc2c(ncn2[C@@H]2O[C@@H]3CO[P@@](O)(=S)O[C@H]4[C@@H](O)[C@H](n5cnc6c(=O)[nH]c(N)nc65)O[C@@H]4CO[P@@](O)(=S)O[C@H]3[C@H]2O)c(=O)[nH]1` [c-(RPRP)-di-Gps] gave a Ki of about 480 nM.

With `Nc1nc2c(ncn2[C@@H]2O[C@@H]3CO[P@@](O)(=S)O[C@H]4[C@@H](O)[C@H](n5cnc6c(=O)[nH]c(N)nc65)O[C@@H]4CO[P@](O)(=S)O[C@H]3[C@H]2O)c(=O)[nH]1` [c-(RPSP)-di-Gps], the Ki was about 820 nM.
